ChEMBL document CHEMBL3751764, “Synthesis and in vitro antiproliferative activity of novel pyrazolo[3,4-d]pyrimidine derivatives” (Medchemcomm, 2015)
Calls of active or inactive are those of the source. The calls are words filed in the database; no cut-off is given here.

Assays:
[1] = molecular target: T1, Vascular endothelial growth factor receptor 2 (Homo sapiens, UniProt P35968); assay: Inhibition of human VEGFR2 at 10 uM after 20 to 40 mins by liquid scintillation counting analysis in presence of […]; set-up: scale not given: the % may be the effect or the level left
T1 sequence (P35968 whole entry): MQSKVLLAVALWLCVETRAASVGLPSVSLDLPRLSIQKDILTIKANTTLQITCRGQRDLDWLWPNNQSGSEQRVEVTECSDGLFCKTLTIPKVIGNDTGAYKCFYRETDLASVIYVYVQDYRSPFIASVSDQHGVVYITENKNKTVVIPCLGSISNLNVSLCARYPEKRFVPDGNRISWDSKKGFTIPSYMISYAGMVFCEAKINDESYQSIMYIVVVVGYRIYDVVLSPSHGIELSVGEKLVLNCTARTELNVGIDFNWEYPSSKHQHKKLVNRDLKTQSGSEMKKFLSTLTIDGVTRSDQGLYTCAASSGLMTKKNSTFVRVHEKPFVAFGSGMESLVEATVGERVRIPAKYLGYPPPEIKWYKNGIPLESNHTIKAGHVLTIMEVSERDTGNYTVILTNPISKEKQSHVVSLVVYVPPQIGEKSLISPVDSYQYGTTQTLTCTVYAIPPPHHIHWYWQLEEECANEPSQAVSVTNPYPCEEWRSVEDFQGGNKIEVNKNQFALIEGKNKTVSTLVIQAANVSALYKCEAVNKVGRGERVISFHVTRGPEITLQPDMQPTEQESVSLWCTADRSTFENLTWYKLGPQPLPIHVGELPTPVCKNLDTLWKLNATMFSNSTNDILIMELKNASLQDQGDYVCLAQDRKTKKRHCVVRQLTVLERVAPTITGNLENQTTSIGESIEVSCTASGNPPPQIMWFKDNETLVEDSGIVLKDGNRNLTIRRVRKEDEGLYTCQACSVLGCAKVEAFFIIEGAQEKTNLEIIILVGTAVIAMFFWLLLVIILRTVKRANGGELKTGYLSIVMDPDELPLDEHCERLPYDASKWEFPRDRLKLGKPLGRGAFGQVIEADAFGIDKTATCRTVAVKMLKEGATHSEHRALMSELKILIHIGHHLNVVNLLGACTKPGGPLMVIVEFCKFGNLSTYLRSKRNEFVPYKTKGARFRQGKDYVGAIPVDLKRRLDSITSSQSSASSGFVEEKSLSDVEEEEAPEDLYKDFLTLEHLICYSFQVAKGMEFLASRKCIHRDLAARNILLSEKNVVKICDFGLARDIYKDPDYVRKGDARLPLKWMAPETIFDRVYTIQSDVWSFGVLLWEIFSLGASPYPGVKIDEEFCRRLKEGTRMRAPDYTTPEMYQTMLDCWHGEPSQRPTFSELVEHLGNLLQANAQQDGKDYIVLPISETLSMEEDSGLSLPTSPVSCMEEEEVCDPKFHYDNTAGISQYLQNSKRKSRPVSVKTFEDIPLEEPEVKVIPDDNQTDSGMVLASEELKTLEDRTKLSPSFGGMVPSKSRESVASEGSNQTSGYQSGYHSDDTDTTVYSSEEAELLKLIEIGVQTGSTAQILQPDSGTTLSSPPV

[2] = test system: MCF7; assay: Cytotoxicity against human MCF7 cells after 72 hrs by SRB assay; format: functional, cell-based; conditions: MCF7, 72 h
[3] = Cytotoxicity against human HL60 cells; format: functional, cell-based; conditions: HL-60
[4] = molecular target: Aurora kinase A (Homo sapiens) (UniProt O14965); assay: Inhibition of human aurora A at 10 uM after 20 to 40 mins by liquid scintillation counting analysis in presence of […]
Aurora kinase A (Homo sapiens), sequence (O14965 whole entry): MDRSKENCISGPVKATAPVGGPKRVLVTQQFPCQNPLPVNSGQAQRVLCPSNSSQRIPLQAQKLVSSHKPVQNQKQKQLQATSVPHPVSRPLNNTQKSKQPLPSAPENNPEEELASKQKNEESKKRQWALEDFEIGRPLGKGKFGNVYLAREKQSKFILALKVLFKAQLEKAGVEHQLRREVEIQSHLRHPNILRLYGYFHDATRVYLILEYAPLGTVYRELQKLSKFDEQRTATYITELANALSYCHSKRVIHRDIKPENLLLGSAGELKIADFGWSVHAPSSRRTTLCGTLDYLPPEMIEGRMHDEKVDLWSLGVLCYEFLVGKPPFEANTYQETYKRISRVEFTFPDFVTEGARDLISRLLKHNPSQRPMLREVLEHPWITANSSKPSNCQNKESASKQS

[5] = molecular target: Cyclin-dependent kinase 1 (Homo sapiens, UniProt P06493); assay: Inhibition of CDK1 (unknown origin) using […] as substrate after 60 mins by TR-FRET assay
Cyclin-dependent kinase 1, sequence (P06493 whole entry): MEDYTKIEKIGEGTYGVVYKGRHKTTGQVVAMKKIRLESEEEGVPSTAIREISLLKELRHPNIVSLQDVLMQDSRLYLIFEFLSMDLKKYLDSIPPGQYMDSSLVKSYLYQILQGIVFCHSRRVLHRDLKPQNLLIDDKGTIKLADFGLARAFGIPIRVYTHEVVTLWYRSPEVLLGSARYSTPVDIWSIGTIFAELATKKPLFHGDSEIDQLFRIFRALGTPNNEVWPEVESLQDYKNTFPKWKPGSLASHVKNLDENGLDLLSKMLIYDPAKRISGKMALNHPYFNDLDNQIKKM

[6] = molecular target: Aurora kinase A (Homo sapiens, UniProt O14965); assay: Inhibition of Aurora A (unknown origin) using poly(Glu:Tyr) as substrate by ELISA-based method
Aurora kinase A, sequence (O14965 whole entry): as the sequence (O14965 whole entry) above

[7] = molecular target: Mast/stem cell growth factor receptor Kit (Homo sapiens, UniProt P10721); assay: Inhibition of N-terminal GST-tagged recombinant kit (unknown origin) using poly(Glu:Tyr) as substrate by ELISA-based method
Mast/stem cell growth factor receptor Kit, sequence (P10721 whole entry): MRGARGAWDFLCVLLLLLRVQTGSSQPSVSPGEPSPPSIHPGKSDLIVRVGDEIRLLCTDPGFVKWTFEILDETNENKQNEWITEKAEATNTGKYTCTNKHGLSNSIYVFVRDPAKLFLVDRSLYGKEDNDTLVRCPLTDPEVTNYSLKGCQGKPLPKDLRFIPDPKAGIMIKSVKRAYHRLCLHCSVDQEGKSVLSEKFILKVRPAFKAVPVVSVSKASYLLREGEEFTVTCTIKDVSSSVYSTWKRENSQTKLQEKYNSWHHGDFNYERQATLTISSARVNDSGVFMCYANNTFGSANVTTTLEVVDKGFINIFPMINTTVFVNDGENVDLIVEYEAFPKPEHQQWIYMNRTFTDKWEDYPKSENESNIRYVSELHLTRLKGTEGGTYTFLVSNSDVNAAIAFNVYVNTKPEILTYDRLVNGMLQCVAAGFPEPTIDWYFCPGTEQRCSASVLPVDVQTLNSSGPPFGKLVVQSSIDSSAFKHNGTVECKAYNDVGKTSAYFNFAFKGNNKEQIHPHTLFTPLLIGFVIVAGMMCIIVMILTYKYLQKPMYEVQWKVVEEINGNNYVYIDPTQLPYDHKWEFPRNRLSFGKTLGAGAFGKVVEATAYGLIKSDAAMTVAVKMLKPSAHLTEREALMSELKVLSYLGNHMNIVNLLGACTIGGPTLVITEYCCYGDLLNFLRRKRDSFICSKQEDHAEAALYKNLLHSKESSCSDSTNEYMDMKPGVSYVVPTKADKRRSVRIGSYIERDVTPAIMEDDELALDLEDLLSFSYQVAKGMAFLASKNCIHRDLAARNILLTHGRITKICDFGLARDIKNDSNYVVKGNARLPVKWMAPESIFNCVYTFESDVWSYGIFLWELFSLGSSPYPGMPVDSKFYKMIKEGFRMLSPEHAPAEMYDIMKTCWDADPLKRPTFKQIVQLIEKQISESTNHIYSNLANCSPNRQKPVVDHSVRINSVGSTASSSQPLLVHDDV

[8] = molecular target: T1, Vascular endothelial growth factor receptor 2; assay: Inhibition of VEGFR2 (unknown origin) autophosphorylation after 2 hrs by cell-based assay
[9] = molecular target: Receptor-type tyrosine-protein kinase FLT3 (Homo sapiens, UniProt P36888); assay: Inhibition of Flt3 (unknown origin) using poly(Glu:Tyr) as substrate by ELISA-based method
[10] = molecular target: T1, Vascular endothelial growth factor receptor 2; assay: Inhibition of VEGFR2 (unknown origin) using poly(Glu:Tyr) as substrate by ELISA-based method
[11] = molecular target: T1, Vascular endothelial growth factor receptor 2; assay: Inhibition of VEGFR2 (unknown origin) using poly(Glu,Ala,Tyr) (6:3:1) as substrate after 20 mins by ELISA
[12] = molecular target: Epidermal growth factor receptor (Homo sapiens) (UniProt P00533); assay: Inhibition of human EGFR at 10 uM after 20 to 40 mins by liquid scintillation counting analysis in presence of […]
Epidermal growth factor receptor (Homo sapiens), sequence (P00533 whole entry): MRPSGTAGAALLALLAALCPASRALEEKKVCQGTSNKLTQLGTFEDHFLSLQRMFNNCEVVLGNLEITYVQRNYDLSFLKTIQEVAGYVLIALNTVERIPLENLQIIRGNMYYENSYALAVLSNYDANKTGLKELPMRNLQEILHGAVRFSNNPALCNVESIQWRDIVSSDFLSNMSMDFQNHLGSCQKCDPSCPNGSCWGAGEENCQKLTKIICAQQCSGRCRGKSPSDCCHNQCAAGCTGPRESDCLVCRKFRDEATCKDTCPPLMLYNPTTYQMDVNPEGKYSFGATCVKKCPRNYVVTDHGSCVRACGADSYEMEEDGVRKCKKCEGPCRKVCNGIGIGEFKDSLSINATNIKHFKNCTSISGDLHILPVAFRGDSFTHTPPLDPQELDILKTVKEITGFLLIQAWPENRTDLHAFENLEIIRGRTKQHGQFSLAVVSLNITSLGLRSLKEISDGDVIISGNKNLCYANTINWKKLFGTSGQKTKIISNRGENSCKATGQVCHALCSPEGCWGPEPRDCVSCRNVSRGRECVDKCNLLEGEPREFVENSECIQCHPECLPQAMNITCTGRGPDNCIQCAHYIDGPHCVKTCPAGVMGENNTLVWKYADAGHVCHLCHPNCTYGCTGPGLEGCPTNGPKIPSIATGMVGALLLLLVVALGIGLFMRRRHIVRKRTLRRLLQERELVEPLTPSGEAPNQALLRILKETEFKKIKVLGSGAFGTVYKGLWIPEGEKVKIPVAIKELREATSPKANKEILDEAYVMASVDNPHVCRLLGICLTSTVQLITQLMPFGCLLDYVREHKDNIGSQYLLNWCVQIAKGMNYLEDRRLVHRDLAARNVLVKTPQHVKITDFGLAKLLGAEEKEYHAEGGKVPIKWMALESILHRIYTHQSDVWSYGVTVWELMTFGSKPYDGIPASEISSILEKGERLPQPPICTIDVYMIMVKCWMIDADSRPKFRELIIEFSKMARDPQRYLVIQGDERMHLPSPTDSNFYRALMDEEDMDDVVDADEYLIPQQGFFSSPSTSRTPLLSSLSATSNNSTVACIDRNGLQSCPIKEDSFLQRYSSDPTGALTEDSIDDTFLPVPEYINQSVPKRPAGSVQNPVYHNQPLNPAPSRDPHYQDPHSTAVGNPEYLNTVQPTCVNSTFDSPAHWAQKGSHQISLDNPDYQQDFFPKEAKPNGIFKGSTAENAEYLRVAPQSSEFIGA

Compound	Activity [1] [%]	IC50 [2] [µM]	further results
O=C(Nc1ccccc1)Nc1ccc(Oc2ncnc3c2cnn3-c2ccccc2)cc1	1	> 100	
Cc1ccccc1NC(=O)Nc1ccc(Nc2ncnc3c2cnn3-c2ccc(Cl)cc2)cc1	3	3.15	
O=c1sc2cc(Nc3ncnc4c3cnn4-c3ccccc3)ccc2n1Cc1ccc(Cl)cc1Cl	-5	44	
N=c1c2cnn(-c3ccccc3)c2ncn1-c1ccc(-c2ccc(C(F)(F)F)cc2)s1			IC50 [3]: 0.21 µM
O=C(Nc1ccc(Nc2ncnc3c2cnn3-c2ccccc2)cc1)Nc1cccc(Cl)c1	-3	4.2	inhibition [4]: inactive
O=C(Nc1ccc(Nc2ncnc3c2cnn3-c2ccc(Cl)cc2)cc1)Nc1ccccc1Cl	1	9.05	
O=C(Nc1ccc(Cl)c(C(F)(F)F)c1)c1ccc(Nc2ncnc3c2cnn3-c2ccc(Cl)cc2)cc1		4.92	
CC(C)n1ncc2cnc(Nc3cc(C(N)=O)n(C)c3)nc21			IC50 [5]: 0.024 µM; IC50 [6]: 0.017 µM
O=C(Nc1ccccc1)Nc1ccc(Oc2ncnc3c2cnn3-c2ccc(Cl)cc2)cc1	-3	82.5	
O=C(Nc1ccc(OC(F)(F)F)cc1)c1sccc1NCc1ccnc2ccccc12 [OSI-930]			IC50 [7]: 0.08 µM
Clc1ccc(COc2ccc(Nc3ncnc4c3cnn4-c3ccc(Cl)cc3)cc2)cc1		> 100	
Cc1cc2nc(Nc3ncnc4c3cnn4-c3ccccc3)sc2cc1C		> 100	
Clc1ccc(-n2ncc3c(Nc4nc5ccc(Cl)cc5s4)ncnc32)cc1		85.6	
O=c1sc2cc(Nc3ncnc4c3cnn4-c3ccccc3)ccc2n1Cc1cccc(Br)c1	2	46.1	
O=C(Nc1ccc(Nc2ncnc3c2cnn3-c2ccccc2)cc1)Nc1cccc(Br)c1	-3	36.3	
O=C(Nc1ccc(Nc2ncnc3c2cnn3-c2ccccc2)cc1)Nc1ccccc1Cl	-5	55.1	
Cc1ccc(C(=O)Nc2cccc(C(F)(F)F)c2)cc1Nc1nc(-c2cccnc2)nc2c1cnn2C			EC50 [8]: 4.2 µM
O=C(NC1CCCCC1)c1ccc(Nc2ncnc3c2cnn3-c2ccc(Cl)cc2)cc1	-4	> 100	
Clc1ccc(COc2ccc(Nc3ncnc4c3cnn4-c3ccccc3)cc2)cc1		4.36	
O=C(Nc1ccccc1Cl)c1ccc(Nc2ncnc3c2cnn3-c2ccc(Cl)cc2)cc1	-8	> 100	
Clc1ccc2nc(Nc3ncnc4c3cnn4-c3ccccc3)sc2c1		> 100	
O=c1sc2cc(Nc3ncnc4c3cnn4-c3ccccc3)ccc2n1Cc1ccc(Cl)c(Cl)c1	1	1.6	
O=c1sc2cc(Nc3ncnc4c3cnn4-c3ccc(Cl)cc3)ccc2n1Cc1ccc(Cl)cc1Cl	1	> 100	
O=C(Nc1ccc(Cl)c(C(F)(F)F)c1)c1ccc(Nc2ncnc3c2cnn3-c2ccccc2)cc1		75.9	
O=C(Nc1ccc(Oc2ncnc3[nH]ncc23)cc1)Nc1ccc(Cl)c(C(F)(F)F)c1			IC50 [9]: 0.004 µM; IC50 [10]: 2.25 µM
Cc1cc(F)c(Nc2ncnc3cc(OCc4ccccc4)ccc23)cc1O			IC50 [11]: < 0.002 µM
O=C(Nc1cccc(Cl)c1)c1ccc(Nc2ncnc3c2cnn3-c2ccccc2)cc1	2	1.12	inhibition [12]: inactive
